The results in this text go back to patent US20100074897A1, “Methods and Compositions related to HIF-1 alpha” (University of Utah Research Foundation, priority 2006, published 2010).

One data set deals with NBS1. As to the kind of experiment: NBS1 mRNA levels by real-time PCR in HCT116 cells. The class given is cell-based, human. The settings on record: siRNA, hypoxia 1% O2 16 h. On the procedure: HCT116 TP53^+/+, HCT116 TP53^−/− cells (Koshiji et al., 2004), and U-2 OS were grown in McCoy's 5A medium (Invitrogen), and HeLa cells in DMEM. For hypoxic treatment, cells were incubated in a hypoxic chamber (Innova CO-48, New Brunswick Scientific) maintaining 1% O2 and 5% CO2. Recombinant adenovirus generation and infection were as previously described (Koshiji et al., 2004).
Total RNA extraction, reverse transcription, and quantitative PCR were performed essentially as described previously (Koshiji et al., 2005). Taqman Gene Expression Assay kits for NBS1, MRE11A, RAD50, MSH2, and ACTB were purchased from Applied Biosystems. All experiments were repeated three times in triplicates, and representative results were presented as means±standard errors.
A general note: Quantitative PCR measures a nucleic acid by following its amplification.

The subject of another data set is HIF-2α. As to the kind of experiment: Western blot after siRNA transfection of HCT116 cells. The class given is cell-based, human. On the procedure:
Western Blot. Western blot analysis was carried out as described previously.
(§1) RNA Interference. Transfection with siRNA duplexes and siRNA sequence information were described previously (Koshiji et al. 2005). CHK1 siRNA was described previously (Zhao et al. 2002). Luciferase siRNA was used as negative control.
For orientation: A western blot detects proteins with antibodies after separation by electrophoresis.

The test system of another data set is CDC25A. The experiment in a line: CDC25A and PGK1 mRNA by real-time RT-PCR in siRNA-transfected HCT116 cells. The class given is cell-based, human. The following applies: siRNA 24 h then hypoxia 16 h. The procedure: Real-Time RT-PCR. Real-time RT-PCR was performed essentially as described previously (Koshiji et al. 2005). Primer and probe (Applied Biosystems) sequences were as follows: CDC25A, forward 5′-[…]-3′ (SEQ ID NO: 25), reverse 5′-[…]-3′ (SEQ ID NO: 26), probe 5′-FAM-[…]-MGB-3′ (SEQ ID NO: 27). PGK-1 (FAM-MGB probe) and ACTB (VIC-MGB probe) were detected with endogenous control reagents from Applied Biosystems. β-actin primers and probe were included into each reaction for normalization. All the experiments were repeated three times in triplicate, and representative results were presented in mean±standard error.
as §1

For data set [1], the target named is synthetic peptide corresponding to HIF-1α residues 299-329.
Data set [2] has as its target synthetic peptide harboring HIF-2α T324V mutation.
Data set [3] concerns the target synthetic peptide including HIF-2α residues 314-331.

As for “5′-AACAGCATCTTTGATAGCAGT-3″ [EPAS1 siRNA]”, in the data set with NBS1, the “effect on NBS1 and MSH2 downregulation and PGK1 upregulation in hypoxic cells” value is “no obvious effects”. The HIF-2α levels entry in the data set with HIF-2α is listed as “reduced specifically”. Also, in the data set with CDC25A, the “effect on hypoxic CDC25A down-regulation and PGK1 up-regulation” value is “no obvious effects”.

B1: recombinant PKD1 (Upstate Biotechnology) (protein)
chain: MSAPPVLRPPSPLLPVAAAAAAAAAALVPGSGPGPAPFLAPVAAPVGGISFHLQIGLSREPVLLLQDSSGDYSLAHVREMACSIVDQKFPECGFYGMYDKILLFRHDPTSENILQLVKAASDIQEGDLIEVVLSASATFEDFQIRPHALFVHSYRAPAFCDHCGEMLWGLVRQGLKCEGCGLNYHKRCAFKIPNNCSGVRRRRLSNVSLTGVSTIRTSSAELSTSAPDEPLLQKSPSESFIGREKRSNSQSYIGRPIHLDKILMSKVKVPHTFVIHSYTRPTVCQYCKKLLKGLFRQGLQCKDCRFNCHKRCAPKVPNNCLGEVTINGDLLSPGAESDVVMEEGSDDNDSERNSGLMDDMEEAMVQDAEMAMAECQNDSGEMQDPDPDHEDANRTISPSTSNNIPLMRVVQSVKHTKRKSSTVMKEGWMVHYTSKDTLRKRHYWRLDSKCITLFQNDTGSRYYKEIPLSEILSLEPVKTSALIPNGANPHCFEITTANVVYYVGENVVNPSSPSPNNSVLTSGVGADVARMWEIAIQHALMPVIPKGSSVGTGTNLHRDISVSISVSNCQIQENVDISTVYQIFPDEVLGSGQFGIVYGGKHRKTGRDVAIKIIDKLRFPTKQESQLRNEVAILQNLHHPGVVNLECMFETPERVFVVMEKLHGDMLEMILSSEKGRLPEHITKFLITQILVALRHLHFKNIVHCDLKPENVLLASADPFPQVKLCDFGFARIIGEKSFRRSVVGTPAYLAPEVLRNKGYNRSLDMWSVGVIIYVSLSGTFPFNEDEDIHDQIQNAAFMYPPNPWKEISHEAIDLINNLLQVKMRKRYSVDKTLSHPWLQDYQTWLDLRELECKIGERYITHESDDLRWEKYAGEQGLQYPTHLINPSASHSDTPETEETEMKALGERVSIL
For the molecule B1, the “PKD1-mediated phosphorylation in an in vitro kinase assay (c.p.m.)” value in data set [1] is given as “a HIF-2α peptide, but not its HIF-1α counterpart, was robustly phosphorylated”; in data set [2] it was “replacement of Thr-324 with valine abolished phosphorylation”; in data set [3], “a HIF-2α peptide, but not its HIF-1α counterpart, was robustly phosphorylated”.
